# According to patent US9234050B2, “Chitosan derivatives to treat animals or optimize animal health” (priority 2008, dated 2016):
# Like-named read-outs stand apart in the source and are kept apart here. Where a SMILES comes first, the peptide text is derived from it. Bridges are numbered along the chain shown (N, C = ends). [ ]: non-standard residue; d: D form. The star is where a group is joined. Ileψ(thiazoline)Cys = CC[C@H](C)[C@H](N)C1=N[C@H](C(=O)*)CS1; dOrn = NCCC[C@@H](N)C(=O)O
# Experiments:
# [1] = Poultry study in feed (weight gain); format: in vivo, chicks; settings: dosage 55 mg/kg in feed; treated feed fed for 8 days
# From the text: Various doses of two different functionalized chitosan-arginines were mixed in feed, both originally 84% degree of deacetylation. “10% functionalized” has a MW of 39 kDa, 12% functionalized, % DDA=82 and polydispersity index (PDI) of 1.5. “30% functionalized” has a MW of 27 kDa, 26% functionalized, % DDA=82 and polydispersity index (PDI) of 1.7. Dosing of feed may be irregular due to challenges in mixing extremely small quantities of material uniformly (sprayed on cornmeal from water solution, mixed with feedmeal). Twelve replicate pens of five chicks were used for each treatment. Treated feed was fed for 8 days, and weight gain and feed conversion were examined after 21 days (comparison with day 1). Awt21 is the average weight gain after 21 days and P Diff is the statistical P value between the measured and control.
# [2] = tested on: C. perfringens (ATCC 12919); format: cell-based
# [3] = tested on: S. enterica (ATCC 700720)
# [4] = tested on: P. multocida (ATCC 11039); settings: for Bacitracin (log reduction alone): BAC 32 μg/mL
molecule,measurement,setting,value
Penicillin,Awt21 (average weight gain after 21 days),[1],0.852 kg
CN(C)[C@@H]1C(O)=C(C(N)=O)C(=O)[C@@]2(O)C(O)=C3C(=O)c4c(O)cccc4[C@@](C)(O)[C@H]3C[C@@H]12 [Tetracycline],Tetracycline (log reduction alone),"[2]; Assay 1, TET 0.05 μg/mL",0.1 log
same,Tetracycline (log reduction alone),"[2]; Assay 2, TET 0.2 μg/mL",0.1 log
CC[C@H](C)[C@H](N)C1=N[C@H](C(=O)N[C@@H](CC(C)C)C(=O)N[C@H](CCC(=O)O)C(=O)N[C@H](C(=O)N[C@H]2CCCCNC(=O)[C@H](CC(N)=O)NC(=O)[C@@H](CC(=O)O)NC(=O)[C@H](Cc3cnc[nH]3)NC(=O)[C@@H](Cc3ccccc3)NC(=O)[C@H]([C@@H](C)CC)NC(=O)[C@@H](CCCN)NC2=O)[C@@H](C)CC)CS1 [Bacitracin] ({Ileψ(thiazoline)Cys}-L[dE]IK[dOrn]I[dF]H[dD]N; lactam 4-C),Bacitracin (log reduction alone),"[3]; Assay 1, BAC 4 μg/mL",0.08 log
same,Bacitracin (log reduction alone),"[3]; Assay 1, BAC 8 μg/mL",0.08 log
same,Bacitracin (log reduction alone),"[3]; Assay 2, BAC 2 μg/mL",0.2 log
same,Bacitracin (log reduction alone),"[3]; Assay 2, BAC 4 μg/mL",0 log
same,Bacitracin (log reduction alone),[4]; Assay 1,0 log
same,Bacitracin (log reduction alone),[4]; Assay 2,0.2 log
same,bactericidal concentration,[4]; P. multocida (ATCC 11039),> 128 µg/mL
